Each structure is given as a SMILES string.

Experiment [1] deals with SARS-CoV-2. The experiment can be described thus: Antiviral activity against SARS-CoV-2 infected in human HPAEpiC cells assessed as reduction in viral growth. The format is functional, organism-based. The conditions noted are these: Severe acute respiratory syndrome coronavirus 2, HPAEpiC.
For experiment [2], the target named is T1, Replicase polyprotein 1ab (Severe acute respiratory syndrome coronavirus 2, UniProt P0DTD1). Put plainly: Inhibition of SARS-CoV-2 RdRp.
Experiment [3] has as its system SARS-CoV-2. The experiment can be described thus: Antiviral activity against SARS-CoV-2 infected in human Calu-3 cells assessed as reduction in viral growth measured after 48 hrs by qRT-PCR analysis. It counts as functional, organism-based. The conditions noted are these: Severe acute respiratory syndrome coronavirus 2, Calu-3, 48 h. For orientation: Real-time PCR tracks product formation cycle by cycle.

A further experiment has as its target Procathepsin L (Homo sapiens, UniProt P07711). The experiment can be described thus: Inhibition of cathepsin L (unknown origin).
The subject of experiment [4] is SARS-CoV-2. Put plainly: Anti-viral activity against SARS-CoV-2 infected in human A549 cells expressing hACE2 by firefly reporter assay. The format is functional, organism-based. The conditions noted are these: Severe acute respiratory syndrome coronavirus 2, A549. (A reporter such as luciferase makes a cellular process visible.)
Experiment [5] has as its system SARS-CoV-2. Put plainly: Antiviral activity against wild type SARS-CoV-2 Omicron BA.5 infected in HEK293T cells assessed as reduction in viral replication measured after 48 hrs by Nano-Glo luciferase assay. It counts as functional, organism-based. The settings on record: Severe acute respiratory syndrome coronavirus 2, HEK-293T.
Experiment [6] deals with SARS-CoV-2. The experiment can be described thus: Antiviral activity against wild type SARS-CoV-2 Omicron BA.1 infected in HEK293T cells assessed as reduction in viral replication measured after 48 hrs by Nano-Glo luciferase assay. The format is functional, organism-based. The conditions noted are these: Severe acute respiratory syndrome coronavirus 2, Omicron BA.1, HEK-293T.

The target in experiment [7] is T1, Replicase polyprotein 1ab. The experiment can be described thus: Inhibition of SARS-CoV-2 3CLPro.
Experiment [8] concerns the target Replicase polyprotein 1ab (Human coronavirus 229E, UniProt P0C6X1). Put plainly: Inhibition of HCov-229E 3CLpro by FRET assay.
The nature of experiment [9]: Inhibition of DENV-2 NS2B/NS3 protease. Details: species or system dengue virus type 2.

Replicase polyprotein 1ab (Human coronavirus 229E, UniProt P0C6X1), sequence (P0C6X1 2966-3267 limits assumed): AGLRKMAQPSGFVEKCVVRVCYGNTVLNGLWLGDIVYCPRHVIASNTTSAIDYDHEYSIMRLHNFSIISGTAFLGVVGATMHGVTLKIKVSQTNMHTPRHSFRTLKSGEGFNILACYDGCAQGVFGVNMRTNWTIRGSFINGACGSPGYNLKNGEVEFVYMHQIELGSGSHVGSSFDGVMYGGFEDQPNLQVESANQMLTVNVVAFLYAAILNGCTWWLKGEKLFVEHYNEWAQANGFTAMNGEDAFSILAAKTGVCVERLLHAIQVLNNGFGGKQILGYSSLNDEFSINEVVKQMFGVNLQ
Procathepsin L, sequence (P07711 whole entry): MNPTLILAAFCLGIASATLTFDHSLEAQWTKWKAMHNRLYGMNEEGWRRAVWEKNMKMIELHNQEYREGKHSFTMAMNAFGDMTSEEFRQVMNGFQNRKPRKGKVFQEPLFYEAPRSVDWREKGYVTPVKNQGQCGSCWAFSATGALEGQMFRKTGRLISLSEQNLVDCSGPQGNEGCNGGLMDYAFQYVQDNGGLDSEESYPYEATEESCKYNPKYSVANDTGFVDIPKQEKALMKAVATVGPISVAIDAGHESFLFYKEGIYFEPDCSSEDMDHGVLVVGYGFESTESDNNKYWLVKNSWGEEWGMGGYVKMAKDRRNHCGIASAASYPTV

Turning to `C=C1C(=O)[C@@]23C(=O)[C@@H](O)[C@@H]4C(C)(C)C[C@@H]5C(=O)OCC54[C@@H]2CC[C@@H]1[C@H]3OC(=O)C1Cc2ccccc2C1` (stereo partly specified), the EC50 (in general, the concentration needed to bring the measured effect to its halfway point) in the experiment on SARS-CoV-2 [1] is 0.019 µM.

Consider `CCCCC/C=C\C/C=C\CCCCCCCCOC(=O)[C@H](C)NP(=O)(OC[C@H]1O[C@@](C#N)(c2ccc3c(N)ncnn23)[C@H](O)[C@@H]1O)Oc1ccccc1` (stereo partly specified), for which, in experiment [2], the EC50 is 0.44 µM.

Take `CCC(CC)COC(=O)[C@H](C)N[P@](=O)(OC[C@H]1O[C@@](c2noc(C(F)(F)F)n2)(c2ccc3c(N)ncnn23)[C@@H]2OC(C)(C)O[C@@H]21)Oc1ccccc1`: the 50% inhibitory concentration (IC50) (in general, the concentration needed to halve the response being measured) with SARS-CoV-2 [3] came out at 19.3 µM. Take `CCOC(=O)/C=C/[C@H](C[C@@H]1CCNC1=O)NC(=O)[C@H](Cc1ccccc1)NC(=O)[C@@H](N)Cc1ccccc1`: the 50% inhibitory concentration (IC50) on Procathepsin L was 0.06 µM; in the experiment on SARS-CoV-2 [4] it was 0.0082 µM. In the case of `CCCCCCCCCC[C@@H]1CCC[C@]2(C=C(CO)[C@H]3CC(=O)C(C)=C[C@H]3O2)O1`, the EC50 came to 0.16 µM in the experiment on SARS-CoV-2 [5] and 0.1 µM in the experiment with SARS-CoV-2 [6].

Regarding `CO[C@@H]1C[C@H](O[C@H]2C[C@](C)(CO)[C@@H]3CC[C@@]4(C)[C@@H]5CC[C@@H]6[C@H](CC(=O)[C@]7(C)C8=COC(N[C@H](C)C(C)C)=N[C@]8(C)[C@@H](O)[C@@H]8O[C@@]687)[C@@]5(C)CC[C@@H]4[C@@]3(C)[C@@H]2O)O[C@H](C)[C@H]1O`, the IC50 in experiment [7] is 0.074 µM; in experiment [8], 0.0066 µM.

On to `C=C1NC(=O)[C@]2(C)CSC(=N2)c2csc(n2)[C@]2(C)CSC(=N2)[C@@H]([C@@H](C)CC)NC(=O)[C@@H](C)NC(=O)/C(=C\C(C)C)COC(=O)c2csc(n2)[C@H](C(C)C)N(C)C(=O)[C@H](COC)NC1=O`, for which the concentration for half-maximal inhibition (IC50) stood at 0.56 µM in experiment [9] and 2.39 µM in [8].

The values above are taken from ChEMBL document CHEMBL6127038, “How many organic small molecules might be used to treat COVID-19? From natural products to synthetic agents” (Eur J Med Chem, 2024).
